Assay results: US4740233A, “Substituted 1,2,4-triazolo[1,5-a]-pyrimidine-2-sulfonamides and compositions and methods of controlling undesired vegetation and suppressing the nitrification of ammonium nitrogen in soil” (The Dow Chemical Company, priority 1986, dated 1988)

Legend:
soybean [1] = assay: Postemergent control of plant species; type: in vivo, Glycine max.; conditions: Glycine max, post-emergence, 336 h, read-out: percent postemergent control
Outline: (§1)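 Compounds were taken up in acetone at twice the final concentration, then diluted with an equal volume of water containing 0.1% surfactant and sprayed onto greenhouse-grown plants at the 2-4 leaf stage. Plants were kept about two weeks under growth conditions; control is growth reduction relative to untreated plants of the same species.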

pigweed = assay: Postemergent control of plant species; type: in vivo, Amaranthus spp.; conditions: Amaranthus retroflexus, post-emergence, 336 h, read-out: percent postemergent control
Outline: as §1

[2] = tested on: nitrification of ammonium nitrogen; assay: Suppression of nitrification of ammonium nitrogen in soil; conditions: 27° C.
Outline: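 Value is % NH4-N remaining after a two-week, 27° C incubation of treated soil held at 1/3 bar tension moisture. Nitrate was measured with an ion-selective electrode after extraction with ammonium sulfate solution and 10 min shaking.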

jimsonweed [3] = assay: Postemergent control of plant species; type: in vivo, Datura stramonium; conditions: Datura stramonium, post-emergence, 336 h, read-out: percent postemergent control
Outline: as §1

wild oats [4] = assay: Postemergent control of plant species; type: in vivo, Avena fatua; conditions: Avena fatua, post-emergence, 336 h, read-out: percent postemergent control
Outline: as §1

barnyardgrass [5] = assay: Control of aquatic plant species (paddy water); type: in vivo, Echinochloa crusgalli; conditions: Echinochloa crus-galli, 216 h, nine days, read-out: Percent control; for pest or weed control at 1000 g/ha: 1.0 Kg/Ha
Procedure: (§2) In testing for such utility, the plant species to be tested were transplanted into 16 oz. containers into about 2 inches of soil when they were in the 1-2 inch stage and then flooded to a depth of about 1 inch. An acetone concentrate of the chemical to be tested was then injected into the paddy water, the volume injected being varied as desired to provide the desired concentration. Percent control was evaluated nine days after application.

sorghum [6] = assay: Postemergent control of plant species; type: in vivo, Sorghum vulgare; conditions: Sorghum, post-emergence, 336 h, read-out: percent postemergent control
Outline: as §1

corn [7] = assay: Postemergent control of plant species; type: in vivo, Zea mays; conditions: Zea mays, post-emergence, 336 h, read-out: percent postemergent control
Outline: as §1

sprangletop = assay: Control of aquatic plant species (paddy water); type: in vivo, Leptochloa filiformis; conditions: Leptochloa filiformis, 216 h, nine days, read-out: Percent control; for pest or weed control at 1000 g/ha: 1.0 Kg/Ha
Procedure: as §2

rice [8] = assay: Postemergent control of plant species; type: in vivo, Oryza sativa; conditions: Oryza sativa, post-emergence, 336 h, read-out: percent postemergent control
Outline: as §1

rice [9] = assay: Control of aquatic plant species (paddy water); type: in vivo, Oryza sativa; conditions: Oryza sativa, 216 h, nine days, read-out: Percent control; for pest or weed control at 1000 g/ha: 1.0 Kg/Ha
Procedure: as §2

johnson grass [10] = assay: Postemergent control of plant species; type: in vivo, Sorghum halepense; conditions: Sorghum halepense, post-emergence, 336 h, read-out: percent postemergent control
Outline: as §1

wheat [11] = assay: Postemergent control of plant species; type: in vivo, Triticum aestivum; conditions: Triticum aestivum, post-emergence, 336 h, read-out: percent postemergent control
Outline: as §1

yellow nutsedge [12] = assay: Control of aquatic plant species (paddy water); type: in vivo, Cyperus esculentus; conditions: Cyperus, 216 h, nine days, read-out: Percent control; for pest or weed control at 1000 g/ha: 1.0 Kg/Ha
Procedure: as §2

crabgrass = assay: Postemergent control of plant species; type: in vivo, Digitaria spp.; conditions: Digitaria sanguinalis, post-emergence, 336 h, read-out: percent postemergent control
Outline: as §1

yellow nutsedge [13] = assay: Postemergent control of plant species; type: in vivo, Cyperus esculentus; conditions: Cyperus, post-emergence, 336 h, read-out: percent postemergent control
Outline: as §1

barnyardgrass [14] = assay: Postemergent control of plant species; type: in vivo, Echinochloa crusgalli; conditions: Echinochloa crus-galli, post-emergence, 336 h, read-out: percent postemergent control
Outline: as §1

cocklebur = assay: Postemergent control of plant species; type: in vivo, Xanthium spp.; conditions: Xanthium strumarium, post-emergence, 336 h, read-out: percent postemergent control
Outline: as §1

sugar beet [15] = assay: Postemergent control of plant species; type: in vivo, Beta saccharifera; conditions: Beta vulgaris, post-emergence, 336 h, read-out: percent postemergent control
Outline: as §1

annual morning glory [16] = assay: Postemergent control of plant species; type: in vivo, Ipomoea spp.; conditions: Ipomoea, post-emergence, 336 h, read-out: percent postemergent control
Outline: as §1

velvetleaf [17] = assay: Postemergent control of plant species; type: in vivo, Abutilon theophrasti; conditions: Abutilon theophrasti, post-emergence, 336 h, read-out: percent postemergent control
Outline: as §1

yellow foxtail [18] = assay: Postemergent control of plant species; type: in vivo, Setaria lutescens; conditions: Setaria, post-emergence, 336 h, read-out: percent postemergent control
Outline: as §1

rape [19] = assay: Postemergent control of plant species; type: in vivo, Brassica napus; conditions: Brassica napus, post-emergence, 336 h, read-out: percent postemergent control
Outline: as §1

cotton [20] = assay: Postemergent control of plant species; type: in vivo, Gossypium spp.; conditions: Gossypium hirsutum, post-emergence, 336 h, read-out: percent postemergent control
Outline: as §1

cotton [21] = assay: Preemergent control of plant species; type: in vivo, Gossypium spp.; conditions: Gossypium hirsutum, pre-emergence, 336 h; 0.25 lb/acre; read-out: percent preemergent control
Outline: (§3)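 Seeds sown in agricultural soil beds in a greenhouse received aqueous emulsions of test compositions applied uniformly over the bed surface at the listed rates; water-treated beds served as control. After two weeks under greenhouse growth conditions, control was scored as growth reduction versus untreated plants of the same species.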

velvetleaf [22] = assay: Preemergent control of plant species; type: in vivo, Abutilon theophrasti; conditions: Abutilon theophrasti, pre-emergence, 336 h; 0.25 lb/acre; read-out: percent preemergent control
Outline: as §3

wheat [23] = assay: Preemergent control of plant species; type: in vivo, Triticum aestivum; conditions: Triticum aestivum, pre-emergence, 336 h; 0.25 lb/acre; read-out: percent preemergent control
Outline: as §3

soybean [24] = assay: Preemergent control of plant species; type: in vivo, Glycine max.; conditions: Glycine max, pre-emergence, 336 h; 0.25 lb/acre; read-out: percent preemergent control
Outline: as §3

yellow foxtail [25] = assay: Preemergent control of plant species; type: in vivo, Setaria lutescens; conditions: Setaria, pre-emergence, 336 h; 0.25 lb/acre; read-out: percent preemergent control
Outline: as §3

annual morning glory [26] = assay: Preemergent control of plant species; type: in vivo, Ipomoea spp.; conditions: Ipomoea, pre-emergence, 336 h; 0.25 lb/acre; read-out: percent preemergent control
Outline: as §3

yellow nutsedge [27] = assay: Preemergent control of plant species; type: in vivo, Cyperus esculentus; conditions: Cyperus, pre-emergence, 336 h; 0.25 lb/acre; read-out: percent preemergent control
Outline: as §3

sugar beet [28] = assay: Preemergent control of plant species; type: in vivo, Beta saccharifera; conditions: Beta vulgaris, pre-emergence, 336 h; 0.25 lb/acre; read-out: percent preemergent control
Outline: as §3

jimsonweed [29] = assay: Preemergent control of plant species; type: in vivo, Datura stramonium; conditions: Datura stramonium, pre-emergence, 336 h; 0.25 lb/acre; read-out: percent preemergent control
Outline: as §3

barnyardgrass [30] = assay: Preemergent control of plant species; type: in vivo, Echinochloa crusgalli; conditions: Echinochloa crus-galli, pre-emergence, 336 h; 0.25 lb/acre; read-out: percent preemergent control
Outline: as §3

rape [31] = assay: Preemergent control of plant species; type: in vivo, Brassica napus; conditions: Brassica napus, pre-emergence, 336 h; 0.25 lb/acre; read-out: percent preemergent control
Outline: as §3

rice [32] = assay: Preemergent control of plant species; type: in vivo, Oryza sativa; conditions: Oryza sativa, pre-emergence, 336 h; 0.25 lb/acre; read-out: percent preemergent control
Outline: as §3

wild oats [33] = assay: Preemergent control of plant species; type: in vivo; conditions: Avena fatua, pre-emergence, 336 h; 0.25 lb/acre; read-out: percent preemergent control
Outline: as §3

sorghum [34] = assay: Preemergent control of plant species; type: in vivo, Sorghum vulgare; conditions: Sorghum, pre-emergence, 336 h; 0.25 lb/acre; read-out: percent preemergent control
Outline: as §3

corn [35] = assay: Preemergent control of plant species; type: in vivo, Zea mays; conditions: Zea mays, pre-emergence, 336 h; 0.25 lb/acre; read-out: percent preemergent control
Outline: as §3

johnson grass [36] = assay: Preemergent control of plant species; type: in vivo, Sorghum halepense; conditions: Sorghum halepense, pre-emergence, 336 h; 0.25 lb/acre; read-out: percent preemergent control
Outline: as §3

Row | Compound | plant injury at 500 ppm (soybean [1]) [%] | pest or weed control at 500 ppm (pigweed) [%] | pest or weed control at 500 ppm (jimsonweed [3]) [%] | pest or weed control at 500 ppm (wild oats [4]) [%] | pest or weed control at 1000 g/ha (barnyardgrass [5]) [%] | plant injury at 500 ppm (sorghum [6]) [%] | plant injury at 500 ppm (corn [7]) [%] | pest or weed control at 1000 g/ha (sprangletop) [%] | plant injury at 500 ppm (rice [8]) [%] | pest or weed control at 500 ppm (johnson grass [10]) [%] | plant injury at 500 ppm (wheat [11]) [%] | pest or weed control at 500 ppm (crabgrass) [%] | pest or weed control at 500 ppm (yellow nutsedge [13]) [%] | pest or weed control at 500 ppm (barnyardgrass [14]) [%] | pest or weed control at 500 ppm (cocklebur) [%] | plant injury at 500 ppm (sugar beet [15]) [%] | pest or weed control at 500 ppm (annual morning glory [16]) [%] | pest or weed control at 500 ppm (velvetleaf [17]) [%] | pest or weed control at 500 ppm (yellow foxtail [18]) [%] | plant injury at 500 ppm (rape [19]) [%] | also measured
1 | Cc1cc(C)n2nc(S(=O)(=O)Nc3ccccc3Cl)nc2n1 [Compound 7, 5,7-dimethyl-N-(2-chlorophenyl)-1,2,4-triazolo[1,5-a]pyrimidine-2-sulfonamide] | 55 | 60 | 20 | 0 | 99 | 65 | 0 | 93 | 15 | 50 | 0 | 0 | 65 | 35 | 100 | 100 | 90 | 65 | 25 | 90 | % NH4-N Remaining After 2 Weeks Incubation ([2]; 0.06 ppm): 17%; % NH4-N Remaining After 2 Weeks Incubation ([2]; 0.125 ppm): 30%; % NH4-N Remaining After 2 Weeks Incubation ([2]; 0.25 ppm): 62%; % NH4-N Remaining After 2 Weeks Incubation ([2]; 0.5 ppm): 73%; % NH4-N Remaining After 2 Weeks Incubation ([2]; 1 ppm): 80%; pest or weed control at 1000 g/ha (rice [9]): 97%; pest or weed control at 1000 g/ha (yellow nutsedge [12]): 90%
2 | Cc1ccnc2nc(S(=O)(=O)Nc3c(Cl)cccc3Cl)nn12 [Compound 180] | 100 | – | 100 | 0 | 97 | 50 | 0 | 97 | 10 | 20 | 0 | 90 | 90 | 10 | 100 | 100 | 90 | 100 | 75 | 100 | plant injury at 500 ppm (cotton [20]): 100%; pest or weed control at 250 g/ha (barnyardgrass [5]; 0.25 Kg/Ha): 90%; pest or weed control at 250 g/ha (sprangletop; 0.25 Kg/Ha): 0%; pest or weed control at 250 g/ha (rice [9]; 0.25 Kg/Ha): 0%; pest or weed control at 1000 g/ha (rice [9]): 80%; pest or weed control at 250 g/ha (yellow nutsedge [12]; 0.25 Kg/Ha): 90%; pest or weed control at 1000 g/ha (yellow nutsedge [12]): 97%
3 | Cc1ccn2nc(S(=O)(=O)Nc3c(C)nn(C)c3C(F)(F)F)nc2n1 [Compound 246] | 85 | 100 | 80 | 0 | – | 95 | 0 | – | 70 | 75 | 0 | 75 | 80 | 50 | 90 | 100 | 50 | 70 | 90 | 70 | plant injury at 500 ppm (cotton [20]): 80%; plant injury at 280.212 g/ha (cotton [21]): 80%; pest or weed control at 280.212 g/ha (velvetleaf [22]): 30%; plant injury at 280.212 g/ha (wheat [23]): 10%; plant injury at 280.212 g/ha (soybean [24]): 90%; pest or weed control at 280.212 g/ha (yellow foxtail [25]): 20%; pest or weed control at 280.212 g/ha (annual morning glory [26]): 0%; pest or weed control at 280.212 g/ha (yellow nutsedge [27]): 20%; plant injury at 280.212 g/ha (sugar beet [28]): 90%; pest or weed control at 280.212 g/ha (jimsonweed [29]): 0%; pest or weed control at 280.212 g/ha (barnyardgrass [30]): 0%; plant injury at 280.212 g/ha (rape [31]): 80%; plant injury at 280.212 g/ha (rice [32]): 20%; pest or weed control at 280.212 g/ha (wild oats [33]): 40%; plant injury at 280.212 g/ha (sorghum [34]): 95%; plant injury at 280.212 g/ha (corn [35]): 20%; pest or weed control at 280.212 g/ha (johnson grass [36]): 20%
